What was measured:
HT-29 = experiment: Antiproliferative activity against human HT-29 cells with PIK3CA mutation assessed as inhibition of cell growth incubated for 48 to 72 hrs by MTT assay; format: functional, cell-based
SW-620 [1] = experiment: Antiproliferative activity against human SW620 cells assessed as inhibition of cell growth incubated for 48 to 72 hrs by MTT assay; format: functional, cell-based
NCI-H3122 = experiment: Antiproliferative activity against human NCI-H3122 cells assessed as inhibition of cell growth incubated for 48 to 72 hrs by MTT assay; format: functional, cell-based
[2] = molecular target: T1, Phosphatidylinositol 4,5-bisphosphate 3-kinase catalytic subunit delta isoform (Homo sapiens, UniProt O00329); experiment: Inhibition of PI3Kdelta (unknown origin) using PIP2 as substrate incubated for 2 hrs in presence of ATP by Kinase Glo luminescence assay
T1 sequence (O00329 whole entry): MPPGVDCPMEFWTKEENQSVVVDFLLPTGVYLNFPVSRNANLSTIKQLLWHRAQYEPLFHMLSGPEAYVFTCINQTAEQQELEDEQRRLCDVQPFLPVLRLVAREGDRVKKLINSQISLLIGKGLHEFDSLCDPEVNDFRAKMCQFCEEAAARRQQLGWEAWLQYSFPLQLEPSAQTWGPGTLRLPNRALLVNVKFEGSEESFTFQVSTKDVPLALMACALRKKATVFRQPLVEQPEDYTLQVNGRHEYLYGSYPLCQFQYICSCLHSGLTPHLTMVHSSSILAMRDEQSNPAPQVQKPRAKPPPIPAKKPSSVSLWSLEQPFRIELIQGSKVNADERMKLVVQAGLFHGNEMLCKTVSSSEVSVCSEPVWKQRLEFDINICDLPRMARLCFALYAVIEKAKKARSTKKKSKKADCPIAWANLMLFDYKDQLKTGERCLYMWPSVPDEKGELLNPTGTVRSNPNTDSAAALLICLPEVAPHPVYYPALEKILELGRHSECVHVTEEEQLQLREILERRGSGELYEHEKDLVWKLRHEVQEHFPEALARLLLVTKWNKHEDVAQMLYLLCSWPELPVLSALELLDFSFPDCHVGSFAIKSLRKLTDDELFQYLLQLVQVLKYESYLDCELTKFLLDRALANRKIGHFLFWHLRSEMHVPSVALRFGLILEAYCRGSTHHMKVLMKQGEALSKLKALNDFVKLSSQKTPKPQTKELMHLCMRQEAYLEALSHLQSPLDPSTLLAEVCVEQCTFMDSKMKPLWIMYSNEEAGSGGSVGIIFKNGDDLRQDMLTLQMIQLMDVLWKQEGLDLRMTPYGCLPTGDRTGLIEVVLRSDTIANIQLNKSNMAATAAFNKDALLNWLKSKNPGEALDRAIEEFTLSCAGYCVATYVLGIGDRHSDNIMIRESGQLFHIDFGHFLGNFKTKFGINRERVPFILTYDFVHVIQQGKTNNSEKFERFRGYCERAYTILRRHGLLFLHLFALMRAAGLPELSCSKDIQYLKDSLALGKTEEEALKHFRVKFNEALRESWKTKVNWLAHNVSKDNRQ

NCI-H446 = experiment: Antiproliferative activity against PTEN-null human NCI-H446 cells assessed as inhibition of cell growth incubated for 48 to 72 hrs by MTT assay; format: functional, cell-based
HCT-15 = experiment: Antiproliferative activity against human HCT-15 cells with PIK3CA mutation assessed as inhibition of cell growth incubated for 48 to 72 hrs by MTT assay; format: functional, cell-based
HeLa [3] = experiment: Antiproliferative activity against human HeLa cells assessed as inhibition of cell growth incubated for 48 to 72 hrs by MTT assay; format: functional, cell-based
[4] = molecular target: Serine/threonine-protein kinase mTOR (Homo sapiens, UniProt P42345); experiment: Inhibition of N-terminal FLAG-tagged recombinant human mTOR (1362 to end residue) using ULight-4EBP1 peptide as substrate incubated for 30 mins in presence of ATP by Lance ultra assay
[5] = molecular target: Phosphatidylinositol 4,5-bisphosphate 3-kinase catalytic subunit alpha isoform (Homo sapiens, UniProt P42336); experiment: Inhibition of PI3Kalpha (unknown origin) using PIP2 as substrate incubated for 1 hr in presence of ATP by Kinase Glo luminescence assay
Chain of Phosphatidylinositol 4,5-bisphosphate 3-kinase catalytic subunit alpha isoform (P42336 whole entry, canonical isoform): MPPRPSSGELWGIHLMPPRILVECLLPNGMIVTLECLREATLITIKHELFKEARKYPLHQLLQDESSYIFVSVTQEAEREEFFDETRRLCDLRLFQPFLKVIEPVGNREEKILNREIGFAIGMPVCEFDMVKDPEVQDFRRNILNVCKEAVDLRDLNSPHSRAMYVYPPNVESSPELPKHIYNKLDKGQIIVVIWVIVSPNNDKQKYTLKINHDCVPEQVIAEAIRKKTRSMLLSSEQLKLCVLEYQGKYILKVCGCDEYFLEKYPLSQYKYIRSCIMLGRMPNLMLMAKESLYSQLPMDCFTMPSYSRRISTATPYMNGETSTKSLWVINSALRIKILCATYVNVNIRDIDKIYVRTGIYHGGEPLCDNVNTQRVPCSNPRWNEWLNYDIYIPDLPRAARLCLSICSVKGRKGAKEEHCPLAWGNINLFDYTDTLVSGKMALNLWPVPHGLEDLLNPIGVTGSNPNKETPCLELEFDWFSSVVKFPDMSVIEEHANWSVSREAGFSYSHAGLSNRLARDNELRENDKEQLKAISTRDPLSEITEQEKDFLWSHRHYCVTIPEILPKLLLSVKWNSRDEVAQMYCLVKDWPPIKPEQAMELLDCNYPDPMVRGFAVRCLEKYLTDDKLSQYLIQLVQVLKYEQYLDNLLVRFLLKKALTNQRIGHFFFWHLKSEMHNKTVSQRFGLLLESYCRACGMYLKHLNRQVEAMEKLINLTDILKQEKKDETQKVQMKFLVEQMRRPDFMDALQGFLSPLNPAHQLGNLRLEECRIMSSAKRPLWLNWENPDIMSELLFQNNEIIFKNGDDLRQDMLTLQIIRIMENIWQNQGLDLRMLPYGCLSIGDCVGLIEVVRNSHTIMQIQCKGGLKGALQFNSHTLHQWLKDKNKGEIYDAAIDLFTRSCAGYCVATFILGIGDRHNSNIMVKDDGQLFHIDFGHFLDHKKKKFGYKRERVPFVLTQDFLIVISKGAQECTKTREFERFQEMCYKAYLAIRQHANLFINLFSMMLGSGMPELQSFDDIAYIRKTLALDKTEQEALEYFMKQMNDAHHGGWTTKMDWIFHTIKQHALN

SW-620 [6] = experiment: Antitumor activity against human SW620 cells xenografted in BALB/c nude mouse assessed as tumor growth inhibition at 30 mg/kg, IG administered daily for 30 days and measured every 2 days relative to control; format: functional; conditions: SW-620, po, 720 h, time 30 day, read-out: TGI
HeLa [7] = experiment: Antitumor activity against human HeLa cells xenografted in BALB/c nude mouse assessed as tumor growth inhibition at 30 mg/kg, IG administered daily for 30 days and measured every 2 days relative to control; format: functional; conditions: po, 720 h, time 30 day, read-out: TGI

Row | Compound | IC50 (HT-29) | IC50 (SW-620 [1]) | IC50 (NCI-H3122) | IC50 [2] | IC50 (NCI-H446) | IC50 (HCT-15) | IC50 (HeLa [3]) | IC50 [4] | IC50 [5] | inhibition in vivo at 30 mg/kg (SW-620 [6]) | inhibition in vivo at 30 mg/kg (HeLa [7])
1 | Cc1nc2cnc3ccc(-c4cnc5[nH]ccc5c4)cc3c2n1[C@H](C)c1ccccc1 | 1.87 µM | 1.65 µM | 1.96 µM | 0.164 µM | 2.78 µM | 1.43 µM | 2.35 µM | 0.102 µM | 0.0796 µM | – | –
2 | Cc1nc2cnc3ccc(-c4cnc5[nH]ccc5c4)cc3c2n1[C@@H](C)c1ccc(F)cc1 | 1.71 µM | 1.61 µM | 1.97 µM | 0.203 µM | 3.02 µM | 1.04 µM | 3.51 µM | 0.0874 µM | 0.14 µM | – | –
3 | Cc1nc2cnc3ccc(-c4cnc5[nH]ccc5c4)cc3c2n1[C@@H](C)c1ccccc1 | 1.61 µM | 1.05 µM | 2.15 µM | 0.104 µM | 3.41 µM | 1.52 µM | 1.62 µM | 0.0781 µM | 0.0541 µM | – | –
4 | Cc1nc2cnc3ccc(-c4ccc(O)cc4)cc3c2n1-c1ccc(F)cc1 | 3.36 µM | 3.62 µM | 3.73 µM | 0.133 µM | 7.82 µM | 2.75 µM | 2.16 µM | 0.244 µM | 0.0892 µM | – | –
5 | Cc1nc2cnc3ccc(-c4cnc(N)nc4)cc3c2n1-c1ccc(F)cc1 | 1.32 µM | 1.93 µM | 5.39 µM | 0.0304 µM | 4.16 µM | 1.97 µM | 2.71 µM | 0.0621 µM | 0.0367 µM | – | –

Further compounds by falling IC50 (HT-29), results first:

Row | IC50 (HT-29) | IC50 (SW-620 [1]) | IC50 (NCI-H3122) | IC50 [2] | IC50 (NCI-H446) | IC50 (HCT-15) | IC50 (HeLa [3]) | IC50 [4] | IC50 [5] | Compound | inhibition in vivo at 30 mg/kg (SW-620 [6]) | inhibition in vivo at 30 mg/kg (HeLa [7])
6 | 1.32 µM | 3.94 µM | 7.73 µM | 0.0964 µM | 9.71 µM | 1.41 µM | 5.68 µM | 0.123 µM | 0.0625 µM | Cc1nc2cnc3ccc(-c4cnc5[nH]ccc5c4)cc3c2n1-c1ccc(C#N)cc1 | – | –
7 | 1.25 µM | 1.28 µM | 2.05 µM | 0.0289 µM | 1.65 µM | 1.13 µM | 1.82 µM | 0.0387 µM | 0.0215 µM | Cc1nc2cnc3ccc(-c4cnc5[nH]ccc5c4)cc3c2n1-c1ccc(F)cc1 | – | –
8 | 1.02 µM | 0.93 µM | 1.08 µM | 0.156 µM | 1.47 µM | 1.36 µM | 0.94 µM | 0.114 µM | 0.0693 µM | Cc1nc2cnc3ccc(-c4cnc5[nH]ccc5c4)cc3c2n1-c1ccc(N2CCOCC2)cc1 | – | –
9 | 1.01 µM | 0.87 µM | 0.96 µM | – | 0.87 µM | 0.91 µM | 1.09 µM | – | – | Cn1c(=O)n(-c2ccc(C(C)(C)C#N)cc2)c2c3cc(-c4cnc5ccccc5c4)ccc3ncc21 [DACTOLISIB] | 51.7% | 53.3%

Source: ChEMBL document CHEMBL5108059, “Discovery of 2-Methyl-2-(4-(2-methyl-8-(1H-pyrrolo[2,3-b]pyridin-6-yl)-1H-naphtho[1,2-d]imidazol-1-yl)phenyl)propanenitrile as a Novel PI3K/mTOR Inhibitor with Enhanced Antitumor Efficacy In Vitro and In Vivo” (J Med Chem, 2022)
